# Data as given in the supplement of paper PMC10331698.
# ± gives the standard deviation of the averaged measurements.
# Legend:
# Test in all cases: level (log10 ratio to DMSO vehicle control); higher = higher biomarker level / cell amount than vehicle control
# Octafluoroadipamide = compound: NC(=O)C(F)(F)C(F)(F)C(F)(F)C(F)(F)C(N)=O [Octafluoroadipamide]; settings: in DMSO
# Description: (§1)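 BioMAP Diversity Plus panel of 12 human primary cell co-culture systems (3C, 4H, LPS, SAg, BT, BF4T, BE3C, CASM3C, HDF3CGF, KF3CT, MyoF, Mphg). Compounds were added 1 h before stimulation and left for 24 h (MyoF 48 h; BT 72 h for soluble read-outs or 6 d for IgG). Biomarkers were read by ELISA, cytotoxicity by SRB, PBMC viability and proliferation by Alamar Blue. Each well value was divided by the mean of 8 DMSO control wells on the same plate and log10 transformed; duplicate blinded samples were tested at 4 concentrations.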
# [1] = compound: FC(F)(F)C(F)(F)C(F)(F)C(F)(F)C(F)(F)C(F)(F)CC1CO1 [3-(Perfluorohexyl)-1,2-epoxypropane]; settings: in DMSO
# Description: as §1
# [2] = compound: O=C(O)C(F)(F)C(F)(F)C(F)(F)C(F)(F)C(F)(F)C(F)(F)C(F)(F)C(F)(F)C(F)(F)C(F)F [11-H-Perfluoroundecanoic acid]; settings: in DMSO
# Description: as §1
# [3] = compound: O=S(=O)(Cl)C(F)(F)C(F)(F)C(F)(F)C(F)(F)C(F)(F)C(F)(F)C(F)(F)C(F)(F)F [Perfluoro-1-octanesulfonyl chloride]; settings: in DMSO
# Description: as §1
# [4] = compound: NC(=O)C(F)(F)C(F)(F)C(F)(F)C(F)F; settings: in DMSO
# Description: as §1
# [5] = compound: FC(F)(F)C(F)(F)C(F)(F)C(F)(F)C(F)(F)C(F)(F)C(F)(F)I [1-Iodopentadecafluoroheptane]; settings: in DMSO
# Description: as §1
# [6] = compound: NS(=O)(=O)C(F)(F)C(F)(F)C(F)(F)C(F)(F)C(F)(F)C(F)(F)F [Perfluorohexanesulfonamide]; settings: in DMSO
# Description: as §1
# [7] = compound: C=CC(=O)OCC(F)(F)C(F)(F)C(F)(F)COC(=O)C=C [1H,1H,5H,5H-Perfluoro-1,5-pentanediol diacrylate]; settings: 6700 nM; in DMSO
# Description: as §1
# [8] = compound: FC(F)(F)C(F)(F)C(F)(F)CC1CO1 [1H,1H-Heptafluorobutyl epoxide]; settings: in DMSO
# Description: as §1
# [9] = compound: C=C(C)C(=O)OCCC(F)(F)C(F)(F)C(F)(F)C(F)(F)C(F)(F)C(F)(F)F [6:2 Fluorotelomer methacrylate]; settings: in DMSO
# Description: as §1
# [10] = compound: O=S(=O)(O)C(F)(F)C(F)(F)C(F)(F)C(F)(F)C(F)(F)C(F)(F)C(F)(F)C(F)(F)C(F)(F)C(F)(F)F [Sodium perfluorodecanesulfonate]; settings: in DMSO
# Description: as §1
# [11] = compound: COC(=O)C(F)(F)C(F)(F)OC(F)(C(F)(F)F)C(F)(F)OC(F)=C(F)F [Methyl perfluoro(3-(1-ethenyloxypropan-2-yloxy)propanoate)]; settings: in DMSO
# Description: as §1
# Heptafluorobutyl iodide = compound: FC(F)(F)C(F)(F)C(F)(F)CI [Heptafluorobutyl iodide]; settings: in DMSO
# Description: as §1
# Hexafluoroamylene glycol = compound: OCC(F)(F)C(F)(F)C(F)(F)CO [Hexafluoroamylene glycol]; settings: in DMSO
# Description: as §1
# [12] = compound: O=S(=O)(F)C(F)(F)C(F)(F)C(F)(F)C(F)(F)C(F)(F)C(F)(F)C(F)(F)C(F)(F)F [Perfluorooctanesulfonyl fluoride]; settings: in DMSO
# Description: as §1
# [13] = compound: O=C(O)C=CC(F)(C(F)(F)F)C(F)(F)F [3-(Perfluoroisopropyl)-2-propenoic acid]; settings: in DMSO
# Description: as §1
# [14] = compound: FC(F)(F)C(F)(F)CNCC(F)(F)C(F)(F)F [Bis(1H,1H-perfluoropropyl)amine]; settings: in DMSO
# Description: as §1
# Nonafluoropentanamide = compound: NC(=O)C(F)(F)C(F)(F)C(F)(F)C(F)(F)F [Nonafluoropentanamide]; settings: in DMSO
# Description: as §1
# [15] = compound: O=S(=O)(O)CCC(F)(F)C(F)(F)C(F)(F)C(F)(F)C(F)(F)C(F)(F)F [6:2 Fluorotelomer sulfonic acid]; settings: in DMSO
# Description: as §1
test system,measurement,setting,value
MyoF:Collagen IV,level (log10),Octafluoroadipamide; 6700 nM,-0.0165 ± 0.015
same,level (log10),Octafluoroadipamide; 20000 nM,-0.0065 ± 0.0064
same,level (log10),Octafluoroadipamide; 60000 nM,0.003 ± 0.038
same,level (log10),[1]; 6700 nM,0.002 ± 0.025
same,level (log10),[1]; 20000 nM,0.0185 ± 0.0021
same,level (log10),[1]; 60000 nM,0.0425 ± 0.053
same,level (log10),[2]; 6700 nM,0.141 ± 0.0028
same,level (log10),[2]; 20000 nM,0.293 ± 0.034
same,level (log10),[3]; 6700 nM,0.014 ± 0.011
same,level (log10),[3]; 20000 nM,0.052 ± 0.023
same,level (log10),[3]; 60000 nM,0.241 ± 0.037
same,level (log10),[4]; 6700 nM,-0.0075 ± 0.0035
same,level (log10),[4]; 20000 nM,-0.007 ± 0.028
same,level (log10),[4]; 60000 nM,0.014 ± 0.038
same,level (log10),[5]; 6700 nM,0.0705 ± 0.049
same,level (log10),[5]; 20000 nM,0.279 ± 0.09
same,level (log10),[6]; 6700 nM,0.0555 ± 0.023
same,level (log10),[6]; 20000 nM,0.202 ± 0.025
same,level (log10),[6]; 60000 nM,0.408 ± 0.016
same,level (log10),[7],0.03 ± 0.047
same,level (log10),[8]; 6700 nM,-0.0125 ± 0.015
same,level (log10),[8]; 20000 nM,0 ± 0.0099
same,level (log10),[8]; 60000 nM,0.001 ± 0.035
same,level (log10),[9]; 6700 nM,-0.075 ± 0.11
same,level (log10),[9]; 20000 nM,-0.0395 ± 0.076
same,level (log10),[9]; 60000 nM,-0.02 ± 0.1
same,level (log10),[10]; 1500 nM,0.014 ± 0.02
same,level (log10),[10]; 4400 nM,0.035 ± 0.0085
same,level (log10),[10]; 13000 nM,0.0215 ± 0.0035
same,level (log10),[10]; 40000 nM,0.0065 ± 0.033
same,level (log10),[11]; 6700 nM,-0.0215 ± 0.04
same,level (log10),[11]; 20000 nM,-0.0235 ± 0.028
same,level (log10),Heptafluorobutyl iodide; 6700 nM,-0.021 ± 0.0071
same,level (log10),Heptafluorobutyl iodide; 20000 nM,-0.0325 ± 0.016
same,level (log10),Heptafluorobutyl iodide; 60000 nM,-0.0185 ± 0.039
same,level (log10),Hexafluoroamylene glycol; 6700 nM,-0.0165 ± 0.042
same,level (log10),Hexafluoroamylene glycol; 20000 nM,-0.0015 ± 0.026
same,level (log10),Hexafluoroamylene glycol; 60000 nM,-0.0035 ± 0.00071
same,level (log10),[12]; 6700 nM,0.0015 ± 0.015
same,level (log10),[12]; 20000 nM,0.023 ± 0.025
same,level (log10),[12]; 60000 nM,0.0235 ± 0.018
same,level (log10),[13]; 6700 nM,-0.01 ± 0.023
same,level (log10),[13]; 20000 nM,0.0025 ± 0.0078
same,level (log10),[13]; 60000 nM,0.0205 ± 0.022
same,level (log10),[14]; 6700 nM,-0.014 ± 0.03
same,level (log10),[14]; 20000 nM,-0.0275 ± 0.015
same,level (log10),[14]; 60000 nM,-0.008 ± 0.03
same,level (log10),Nonafluoropentanamide; 6700 nM,-0.051 ± 0.12
same,level (log10),Nonafluoropentanamide; 20000 nM,-0.0655 ± 0.054
same,level (log10),Nonafluoropentanamide; 60000 nM,-0.0655 ± 0.064
same,level (log10),[15]; 6700 nM,-0.0185 ± 0.033
same,level (log10),[15]; 20000 nM,-0.006 ± 0.023
same,level (log10),[15]; 60000 nM,-0.002 ± 0.014
